One assay has as its system MDA-MB-436. Put plainly: CTG experiment for cell viability (CellTiter-Glo, 96-well plate, 7 days). Format: cell-based. The settings on record: Homo sapiens, MDA-MB-436, 168 h, MDA-MB-436 cells, 7 days culture with compound. Here is the method:
Test Example 2: CTG experiment for cell viability
• 1. Object: to screen USP1 inhibitors by a CTG assay, using a 96-well plate. • 2. Materials: • The cells used were MDA-MB-436 (manufacturer: Nanjing Cobioer Biotechnology Co., Ltd.) and cultured in DMEM medium, • CTG (CellTiter-Glo® Luminescent Cell Viability Assay kit) (Promega, Cat. No.: G7572), • 96-well plate (Corning, Cat. No.: 3610). • 3. Compounds: all compounds were dissolved in 100% DMSO to obtain 50 mM stock solutions. • 4. Experimental method: • ① Plating: The cells to be tested were spread into a 96-well plate at a certain density, with 200 µL per well, and 200 µL of cell medium was added to the blank wells. […] The cell plate with the compounds was placed in an incubator at 37°C, and further cultured for 7 days prior to detection. • ④ Assay: The substrate and the buffer of CTG kit were mixed evenly. The cell plate with the compounds in Step ③ was taken out from the incubator, and left at room temperature to equilibrate for 30 minutes. The medium containing the compounds was removed from the cell plate, 100 µL of PBS and 50 µL of CTG reagent were added to each well, shaken and mixed for 3 minutes, and then incubated for 10 minutes at room temperature. The plate was read by a BIotek microplate-reader, with a parameter set to 567 CPM. • 5. Curve fitting
It was the same as that for the enzyme.

Assay [1] addresses T1, Recombinant human His6-USP1/His6-UAF1 complex protein (Homo sapiens, UniProt O94782).
T1 construct: His6; purchased R&D E-568-050
Put plainly: In vitro inhibitory activity against USP1 (Ubiquitin Rhodamine 110 fluorescence detection, 384-well plate). The class given is biochemical. The settings on record: Ub-Rho substrate, 1 hour pre-incubation, read after 30 minutes. The method, boiled down:
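Fluorescence assay measuring inhibition of recombinant human His6-USP1/His6-UAF1 complex with Ubiquitin-Rhodamine 110 substrate. Compounds held as 50 mM stocks in 100% DMSO and dispensed by acoustic transfer into modified Tris assay buffer.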

T1 sequence (O94782 whole entry): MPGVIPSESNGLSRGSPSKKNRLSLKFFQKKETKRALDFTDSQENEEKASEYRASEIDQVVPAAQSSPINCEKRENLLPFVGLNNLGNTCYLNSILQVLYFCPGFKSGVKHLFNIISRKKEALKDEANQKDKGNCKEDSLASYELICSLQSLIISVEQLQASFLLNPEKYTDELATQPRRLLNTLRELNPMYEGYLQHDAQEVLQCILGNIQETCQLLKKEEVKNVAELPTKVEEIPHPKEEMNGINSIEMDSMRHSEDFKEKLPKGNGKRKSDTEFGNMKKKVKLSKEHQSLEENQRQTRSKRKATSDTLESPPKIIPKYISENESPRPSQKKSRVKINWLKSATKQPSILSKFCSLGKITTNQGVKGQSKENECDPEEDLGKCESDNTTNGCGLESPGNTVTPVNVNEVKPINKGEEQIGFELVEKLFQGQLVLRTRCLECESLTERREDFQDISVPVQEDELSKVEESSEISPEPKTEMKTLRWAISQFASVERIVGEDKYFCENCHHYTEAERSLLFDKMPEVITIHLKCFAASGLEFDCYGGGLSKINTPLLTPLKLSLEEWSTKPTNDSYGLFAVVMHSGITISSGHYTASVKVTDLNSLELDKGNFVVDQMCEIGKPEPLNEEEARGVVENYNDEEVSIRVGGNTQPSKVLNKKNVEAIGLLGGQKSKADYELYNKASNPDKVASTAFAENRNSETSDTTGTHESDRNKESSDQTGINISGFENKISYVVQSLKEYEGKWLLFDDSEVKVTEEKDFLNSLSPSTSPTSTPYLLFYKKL
T1 sequence (Q8TAF3 whole entry partner): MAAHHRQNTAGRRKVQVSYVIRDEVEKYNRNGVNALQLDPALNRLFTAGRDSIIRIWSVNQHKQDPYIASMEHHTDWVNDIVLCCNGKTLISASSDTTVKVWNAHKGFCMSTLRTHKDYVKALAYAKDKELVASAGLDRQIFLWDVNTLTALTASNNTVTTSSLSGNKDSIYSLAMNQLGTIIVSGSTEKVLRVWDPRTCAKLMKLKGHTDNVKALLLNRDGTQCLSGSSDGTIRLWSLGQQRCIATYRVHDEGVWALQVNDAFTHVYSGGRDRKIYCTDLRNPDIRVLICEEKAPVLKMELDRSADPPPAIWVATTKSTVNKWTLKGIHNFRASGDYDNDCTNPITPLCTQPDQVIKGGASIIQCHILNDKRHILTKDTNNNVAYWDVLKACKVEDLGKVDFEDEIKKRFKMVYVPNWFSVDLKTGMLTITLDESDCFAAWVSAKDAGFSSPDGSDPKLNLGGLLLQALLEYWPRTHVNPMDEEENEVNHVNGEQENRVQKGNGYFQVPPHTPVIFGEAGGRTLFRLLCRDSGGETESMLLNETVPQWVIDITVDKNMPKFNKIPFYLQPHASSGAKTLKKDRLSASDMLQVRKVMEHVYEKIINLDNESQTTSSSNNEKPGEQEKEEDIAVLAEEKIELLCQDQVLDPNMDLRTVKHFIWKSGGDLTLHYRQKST

Consider `CC(C)c1ccccc1-c1nc(NCc2ccc(-c3ccccn3)cc2)c2occc2n1` [Example 32, 2-(2-isopropylphenyl)-N-(4-(pyridin-2-yl)benzyl)furo [3,2-d] pyrimidin-4-amine], for which the values for the IC50 (in the assay on MDA-MB-436; in assay [1]) were 336 nM and 2.8 nM, respectively.

Take `CC(C)c1ccccc1-c1nc(NCc2ccc(-c3nc(C(F)(F)F)cn3C)cc2)c2occc2n1` [Example 33, 2-(2-Isopropylphenyl)-N-(4-(1-methyl-4-(trifluoromethyl)-1H-imidazol-2-yl)benzyl)furo[3,2-d]pyrimidin-4-amine]: the IC50 in the assay with MDA-MB-436 was found to be 1.8 nM; in assay [1], 1.2 nM.

As to `COc1ncnc(C2CC2)c1-c1nc(NCc2ccc(-c3nc(C(F)(F)F)cn3C)cc2)c2occc2n1` [Example 35, 2-(4-Cyclopropyl-6-methoxypyrimidin-5-yl)-N-(4-(1-methyl-4-(trifluoromethyl)-1H-imidazol-2-yl)benzyl)furo[3,2-d]pyrimidin-4-amine], the results for the IC50 (in the assay with MDA-MB-436; in assay [1]) were 45 nM and 9.6 nM, respectively.

For the molecule `CC(C)c1ccccc1-c1nc(NCc2ccc(-c3ccccn3)cc2)c2[nH]ccc2n1` [Example 36, 2-(2-Isopropylphenyl)-N-(4-(pyridin-2-yl)benzyl)-5H-pyrrolo[3,2-d]pyrimidin-4-amine], the IC50 in the assay on MDA-MB-436 worked out at 950 nM; in assay [1], 22.4 nM.

Regarding `CC(C)c1ccccc1-c1ncc(Cl)c(NCc2ccc(-c3nc(C(F)(F)F)cn3C)cc2)n1` [Example 38, 5-Chloro-2-(2-isopropylphenyl)-N-(4-(1-methyl-4-(trifluoromethyl)-1H-imidazol-2-yl)benzyl)pyrimidin-4-amine], the values for the IC50 (in the assay with MDA-MB-436; in assay [1]) were 13.7 nM and 1.1 nM, respectively.

On to `CC(C)c1ccccc1-c1ncc(C#N)c(NCc2ccc(-c3nc(C(F)(F)F)cn3C)cc2)n1` [Example 39, 2-(2-Isopropylphenyl)-4-((4-(1-methyl-4-(trifluoromethyl)-1H-imidazol-2-yl)benzyl)amino)pyrimidine-5-carbonitrile], for which the IC50 with MDA-MB-436 worked out at 56.9 nM; in assay [1], 2.8 nM.

Regarding `CC(C)c1ccccc1-c1nc(NCc2ccc(-c3nc(C(F)(F)F)cn3C)cc2)c2ncccc2n1` [Example 40, 2-(2-Isopropylphenyl)-N-(4-(1-methyl-4-(trifluoromethyl)-1H-imidazol-2-yl)benzyl)pyrido[3,2-d]pyrimidin-4-amine], the IC50 in the assay with MDA-MB-436 is 21.4 nM; in assay [1] it was 2.3 nM.

As for `COc1ncnc(C2CC2)c1-c1nc(NCc2ccc(-n3nc(C(F)(F)F)cc3C)cc2)c2occc2n1` [Example 50, 2-(4-Cyclopropyl-6-methoxypyrimidin-5-yl)-N-(4-(5-methyl-3-(trifluoromethyl)-1H-pyrazol-1-yl)benzyl)furo[3,2-d]pyrimidin-4-amine], the IC50 in the assay with MDA-MB-436 turned out to be 0.022 nM; in assay [1] it was 5.2 nM.

Take `Cc1cc(C(F)(F)F)nn1-c1ccc(CNc2nc(-c3ccccc3C(C)C)nc3ccoc23)cc1` [Example 57, 2-(2-Isopropylphenyl)-N-(4-(5-methyl-3-(trifluoromethyl)-1H-pyrazol-1-yl)benzyl)furo[3,2-d]pyrimidin-4-amine]: the IC50 was 48.3 nM in the assay on MDA-MB-436 and 4.4 nM in assay [1].

As for `COc1cnc(-c2ccccc2C(C)C)nc1N(C)CC1CCC(c2ccccn2)CC1` (centres unmarked) [Example 61, 2-(2-isopropylphenyl)-5-methoxy-N-methyl-N-((4-(pyridin-2-yl)cyclohexyl)methyl)pyrimidin-4-amine], the IC50 with MDA-MB-436 is 813 nM; in assay [1], 11 nM.

Consider `COc1cnc(-c2ccccc2C(C)C)nc1N(C)CC1CCN(c2nc(C(F)(F)F)cn2C)CC1` [Example 62, 2-(2-Isopropylphenyl)-5-methoxy-N-methyl-N-((1-(1-methyl-4-(trifluoromethyl)-1H-imidazol-2-yl)piperidin-4-yl)methyl)pyrimidin-4-amine], for which the IC50 with MDA-MB-436 amounted to 2.2 nM; in assay [1], 2.1 nM.

With `COc1cnc(-c2ccccc2C(C)C)nc1NCC1CCC(c2ccccn2)CC1` (centres unmarked) [Example 63, 2-(2-Isopropylphenyl)-5-methoxy-N-((4-(pyridin-2-yl)cyclohexyl)methyl)pyrimidin-4-amine], the IC50 worked out at 30 nM with MDA-MB-436 and 3.3 nM in assay [1].

Turning to `COc1cnc(-c2ccccc2C(C)C)nc1NCc1ccc(-c2ccccn2)cc1` [Example 64, 2-(2-Isopropylphenyl)-5-methoxy-N-(4-(pyridin-2-yl)benzyl)pyrimidin-4-amine], the concentration for half-maximal inhibition (IC50) in the assay with MDA-MB-436 was determined as 6.3 nM; in assay [1], 3.7 nM.

`COc1cnc(-c2ccccc2C(C)C)nc1NCC1CCN(c2nc(C(F)(F)F)cn2C)CC1` [Example 65, 2-(2-Isopropylphenyl)-5-methoxy-N-((1-(1-methyl-4-(trifluoromethyl)-1H-imidazol-2-yl)piperidin-4-yl)methyl)pyrimidin-4-amine]: the IC50 with MDA-MB-436 is 2.4 nM; in assay [1] it was 2.1 nM.

As to `COc1cnc(-c2ccccc2C(C)C)nc1NCc1ccc(-c2ccc(C)cn2)cc1` [Example 66, 2-(2-Isopropylphenyl)-5-methoxy-N-(4-(5-methylpyridin-2-yl)benzyl)pyrimidin-4-amine], the IC50 in the assay on MDA-MB-436 is 14.6 nM; in assay [1], 5.6 nM.

Turning to `CCOCCOc1ccc(CNc2nc(-c3ccccc3C(C)C)ncc2OC)cc1` [Example 68, N-(4-(2-Ethoxyethoxy)benzyl)-2-(2-isopropylphenyl)-5-methoxypyrimidin-4-amine], the results for the IC50 (in the assay on MDA-MB-436; in assay [1]) were 267 nM and 3.2 nM, respectively.

As for `COc1cc(CNc2nc(-c3ccccc3C(C)C)ncc2OC)ccc1-n1nc(C(F)(F)F)cc1C` [Example 69, 2-(2-Isopropylphenyl)-5-methoxy-N-(3-methoxy-4-(5-methyl-3-(trifluoromethyl)-1H-pyrazol-1-yl)benzyl)pyrimidin-4-amine], the IC50 was 709 nM with MDA-MB-436 and 9.2 nM in assay [1].

Regarding `CC(C)Oc1cnc(-c2ccccc2C(C)C)nc1N(C)CC1CCN(c2nc(C(F)(F)F)cn2C)CC1` [Example 70, 5-Isopropoxy-2-(2-isopropylphenyl)-N-methyl-N-((1-(1-methyl-4-(trifluoromethyl)-1H-imidazol-2-yl)piperidin-4-yl)methyl)pyrimidin-4-amine], the values for the IC50 (in the assay on MDA-MB-436; in assay [1]) were 600 nM and 19.4 nM, respectively.

Regarding `CC(C)Oc1cnc(-c2ccccc2C(C)C)nc1N(C)Cc1ccc(-c2nc(C(F)(F)F)cn2C)cc1` [Example 71, 5-Isopropoxy-2-(2-isopropylphenyl)-N-methyl-N-(4-(1-methyl-4-(trifluoromethyl)-1H-imidazol-2-yl)benzyl)pyrimidin-4-amine], the half-inhibitory concentration (IC50) in the assay with MDA-MB-436 turned out to be 274 nM; in assay [1], 9.9 nM.

For `CC(C)Oc1cnc(-c2ccccc2C(C)C)nc1NCC1CCN(c2nc(C(F)(F)F)cn2C)CC1` [Example 72, 5-Isopropoxy-2-(2-isopropylphenyl)-N-((1-(1-methyl-4-(trifluoromethyl)-1H-imidazol-2-yl)piperidin-4-yl)methyl)pyrimidin-4-amine], the IC50 came to 181 nM with MDA-MB-436 and 6.1 nM in assay [1].

Take `CC(C)Oc1cnc(-c2ccccc2C(C)C)nc1NCc1ccc(-c2nc(C(F)(F)F)cn2C)cc1` [Example 73, 5-Isopropoxy-2-(2-isopropylphenyl)-N-(4-(1-methyl-4-(trifluoromethyl)-1H-imidazol-2-yl)benzyl)pyrimidin-4-amine]: the IC50 in the assay with MDA-MB-436 stood at 112 nM; in assay [1], 3.6 nM.

Consider `CC(C)c1ccccc1-c1ncc(C(F)(F)F)c(NCC2CCN(c3nc(C(F)(F)F)cn3C)CC2)n1` [Example 75, 2-(2-Isopropylphenyl)-N-((1-(1-methyl-4-(trifluoromethyl)-1H-imidazol-2-yl)piperidin-4-yl)methyl)-5-(trifluoromethyl)pyrimidin-4-amine], for which the values for the IC50 (in the assay with MDA-MB-436; in assay [1]) were 331 nM and 3.7 nM, respectively.

For `COc1cc(-c2nc(C(F)(F)F)cn2C)ccc1CNc1nc(-c2ccccc2C(C)C)nc2ccoc12` [Example 81, 2-(2-Isopropylphenyl)-N-(2-methoxy-4-(1-methyl-4-(trifluoromethyl)-1H-imidazol-2-yl)benzyl)furo[3,2-d]pyrimidin-4-amine], the figures for the IC50 (with MDA-MB-436; in assay [1]) were 66.1 nM and 3.7 nM, respectively.

Consider `COc1cc(CNc2nc(-c3ccccc3C(C)C)nc3ccoc23)ccc1-c1nc(C(F)(F)F)cn1C` [Example 82, 2-(2-Isopropylphenyl)-N-(3-methoxy-4-(1-methyl-4-(trifluoromethyl)-1H-imidazol-2-yl)benzyl)furo[3,2-d]pyrimidin-4-amine], for which the IC50 in the assay with MDA-MB-436 is 278 nM; in assay [1], 1.7 nM.

Turning to `COc1cc(-n2nc(C(F)(F)F)cc2C)ccc1CNc1nc(-c2ccccc2C(C)C)nc2ccoc12` [Example 83, 2-(2-Isopropylphenyl)-N-(2-methoxy-4-(5-methyl-3-(trifluoromethyl)-1H-pyrazol-1-yl)benzyl)furo[3,2-d]pyrimidin-4-amine], the figures for the IC50 (in the assay on MDA-MB-436; in assay [1]) were 99.1 nM and 4.4 nM, respectively.

The values above are taken from patent EP4741386A1 (Jiangsu Yahong Meditech Co., Ltd., priority 2023, dated 2025).
